Test results taken from patent US20230064254A1, “THERAPEUTIC AGENT CONTAINING FUSED PYRIMIDINE COMPOUND AS ACTIVE INGREDIENT” (TAIHO PHARMACEUTICAL CO., LTD., priority 2019, published 2023).

Key:
[1] = tested on: Human monocytic cells THP-1; assay: Inhibition of TNFα cytokine production by IgG stimulation; format: cell-based; details: THP-1 cells on solid-phased human IgG, cultured 4 hours, ELISA; FIG. 2
Experimental: The present test was carried out with reference to the Non-Patent literature (Chang et al., Arthritis Res Ther 2011 13(4): R115). Human monocytic cells THP-1 suspended in a 10% FBS-containing RPMI1640 culture medium were seeded on a 96-well plate, on which human IgG had been solid-phased. A fumarate of Compound 1 was serially diluted with DMSO, and was then added to the plate, on which the cells had been seeded. The cells seeded into a well of the plate, in which IgG had not been solid-phased, were used as a control. DMSO, which was added to the plate at the same time as the seeding of the cells, was defined as a vehicle. The cells were cultured for 4 hours at 37° C. in a CO2 incubator, and thereafter, a culture supernatant was recovered. Using an anti-TNFα ELISA kit (R & D system), the concentration of TNFα in the culture supernatant was measured.

[2] = tested on: mouse B cells; assay: Effect of inhibiting IgG production in mouse B cells; format: cell-based; details: CD43-negative B cells from BALB/c mouse spleen, anti-CD40 antibody and IL-4 stimulation, cultured 8 days, ELISA; FIG. 1
Experimental: The present test was carried out with reference to the Non-Patent literature (Castigli et al., J Allergy Clin Immunol 2007 120(4): 885-91). A CD43-negative B cell fraction was separated from the spleen collected from BALB/c mice, and was then suspended in a 10% FBS-containing RPMI1640 culture medium, to which an anti-CD40 antibody and IL-4 had been added. A fumarate of Compound 1 was serially diluted with DMSO, and was then added to a plate, at the same time as the seeding of the cells onto the plate. A 10% FBS-containing RPMI culture medium, to which neither an anti-CD40 antibody nor IL-4 had been added, was used as a control. DMSO, which was added to a plate at the same time as the seeding of the cells on the plate, was defined as a vehicle. The cells were cultured for 8 days at 37° C. in a CO2 incubator, and thereafter, a culture supernatant was recovered. Using an anti-IgG antibody ELISA kit (Thermo Fisher Scientific), the IgG concentration in the culture supernatant was measured.

[3] = tested on: HIGA mice; assay: Inhibition of decrease in renal function in IgA nephropathy mouse models (HIGA mice), blood urea nitrogen; format: in vivo; details: for blood urea nitrogen level (BUN), compared with the vehicle group: 10 mpk orally once a day for 6 weeks, FIG. 3, 10 mg/kg
Experimental: The present test was carried out, using HIGA mice that had been reported as mouse models of IgA nephropathy (Muso et al., Kidney International 1996 50: 1946-1957). A vehicle, a fumarate of Compound 1, or Ibrutinib (Comparative Example 1) was orally administered to 14-week-old to 16-week-old HIGA mice (Japan SLC, Inc.) once a day, continuously for 6 weeks. The control mice were not IgA nephropathy mouse models (HIGA mice), but were Balb/c mice (Japan SLC, Inc.) with the same age in weeks as described above. The vehicle was 0.5% HPMC. The daily doses were set as the following: the vehicle: 10 ml/kg, the fumarate of Compound 1: 10 mpk, and Ibrutinib: 30 mpk. […] Peripheral blood was collected from […], and the urea nitrogen level in the blood was measured. Using UREA NITROGEN (BUN) Colorimetric Detection Kit (Arbor Assays), the urea nitrogen level in the blood was measured.

[4] = AUC comparison of fumarate of Compound 1 and Ibrutinib; format: in vivo; details: fumarate of Compound 1 (1 mpk) compared with Ibrutinib (3 mpk)

Row | Structure (SMILES) | concentration of TNFα in the culture supernatant (TNFα production) [1] | IgG concentration in the culture supernatant (IgG production) [2] | blood urea nitrogen level (BUN), compared with the vehicle group [3] | medicinal effects in HIGA mice (blood urea nitrogen level) ([3]; orally once a day for 6 weeks, fumarate of Compound 1 10 mpk, Ibrutinib 30 mpk) | AUC values [4] | blood urea nitrogen level (BUN), compared with Comparative Example 1 (Ibrutinib) ([3]; fumarate of Compound 1 10 mpk vs Ibrutinib 30 mpk, orally once a day for 6 weeks, FIG. 3)
1 | C=CC(=O)N1CCC[C@@H](n2nc(C(=O)Nc3nc4ccccc4o3)c3c(N)ncnc32)C1 [Compound 1, (R)-1-(1-acryloylpiperidin-3-yl)-4-amino-N-(benzo[d]oxazol-2-yl)-1H-pyrazolo[3,4-d]pyrimidine-3-carboxamide] | inhibited TNFα production in a dose-dependent manner | inhibited IgG production in a dose-dependent manner | significantly reduce the blood urea nitrogen level (BUN) | exhibited excellent medicinal effects | – | –
2 | C=CC(=O)N1CCC[C@@H](n2nc(-c3ccc(Oc4ccccc4)cc3)c3c(N)ncnc32)C1 [Ibrutinib, reference compound] | – | – | – | – | equivalent AUC values | –
3 | C=CC(=O)N1CCC[C@@H](n2nc(C(=O)Nc3nc4ccccc4o3)c3c(N)ncnc32)C1 [fumarate of Compound 1, (R)-1-(1-acryloylpiperidin-3-yl)-4-amino-N-(benzo[d]oxazol-2-yl)-1H-pyrazolo[3,4-d]pyrimidine-3-carboxamide] | – | – | inhibits an increase in the blood urea nitrogen level | – | equivalent AUC values | significantly reduces the blood urea nitrogen level
